Test results reported in publication doi:10.1101/2024.12.16.628070v1 (bioRxiv, 2024).
Values after ≈ are worked out from the molar mass of the structure shown. Where two headings read alike, the source gives them in different places. Blank lines part the entries; values can stand above or below the compound they belong to. Where no end group is shown, it is not given here.

Columns and labels:
[1] = test system: Shigella flexneri; assay: MIC, broth microdilution; type: cell-based; settings: strain M90T
[2] = test system: Acinetobacter baumannii; assay: MIC, broth microdilution; type: cell-based
[3] = test system: Bacillus cereus; assay: MIC, broth microdilution; type: cell-based; settings: strain ATCC 11778
[4] = test system: Enterobacter cloacae; assay: MIC, broth microdilution; type: cell-based
[5] = test system: Klebsiella pneumoniae; assay: MIC, broth microdilution; type: cell-based
[6] = test system: Salmonella typhimurium; assay: MIC, broth microdilution; type: cell-based; settings: strain ATCC 14028
[7] = test system: Salmonella entereditis; assay: MIC, broth microdilution; type: cell-based; settings: strain ATCC 13076
[8] = test system: E. coli M6; type: cell-based, Escherichia coli
[9] = test system: Morganella morganii; assay: MIC, broth microdilution; type: cell-based
[10] = test system: Bacillus subtilis; assay: MIC, broth microdilution; type: cell-based; settings: strain ATCC 6633
[11] = test system: Pseudomonas aeruginosa; assay: MIC, broth microdilution; type: cell-based
[12] = Single-dose pharmacokinetic study; type: in vivo; settings: mouse, blood, ip, 50 mg/kg
[13] = molecular target: BamA-β (transmembrane β-barrel domain of BamA) (Escherichia coli, UniProt P0A940, C690S/C700S); assay: Surface Plasmon Resonance affinity to BamA-β in LDAO micelles; type: binding
[14] = molecular target: BAM complex (Escherichia coli, UniProt P0A940); assay: Differential Scanning Fluorimetry of BAM complex in nanodiscs; type: binding; settings: read-out: increase in melting temperature (Tm)
[15] = test system: Staphylococcus aureus; assay: MIC, broth microdilution; type: cell-based
[16] = test system: Escherichia coli; type: cell-based
[17] = test system: Enterococcus faecalis; assay: MIC, broth microdilution; type: cell-based; settings: strain ATCC 29212
[18] = K12 MG1655 BamA F394V, E435K, G443D
[19] = strain ATCC 25922 (WT), broth microdilution, MHB, 18-20 h, 37 °C

Compound: CC(C)[C@@H]1NC(=O)[C@@H](N)Cc2c[nH]c3cc(ccc23)C(C(N)=O)[C@@H](C(=O)N[C@@H](C)C(=O)N[C@H]2Cc3cccc(c3)C(CCNC(=N)N)[C@@H](C(=O)N[C@H]3Cc4c[nH]c5cc(ccc45)C(CCCN)[C@@H](C(=O)N[C@@H](CO)C(=O)N[C@@H](Cc4ccccc4)C(=O)O)NC(=O)[C@H](CO)NC3=O)NC(=O)[C@H](C)NC2=O)NC1=O (stereo partly shown) [Compound 2, xenorceptide A2]
MIC [1]: 2 µg/mL (≈ 1.34 µM) | MIC ([2]; strain ACBA1001): 32 µg/mL (≈ 21.4 µM) | MIC ([2]; strain ACBA1002): 32 µg/mL (≈ 21.4 µM) | MIC ([2]; strain ACBA1003): 32 µg/mL (≈ 21.4 µM) | MIC ([2]; strain ACBA1004): 64 µg/mL (≈ 42.9 µM) | MIC ([2]; strain ATCC 19606): >64 µg/mL | MIC [3]: >64 µg/mL | MIC ([4]; strain CRE1010): 4 µg/mL (≈ 2.68 µM) | MIC ([4]; strain CRE1014): 16 µg/mL (≈ 10.7 µM) | MIC ([4]; strain CRE1015): 32 µg/mL (≈ 21.4 µM) | MIC ([4]; strain CRE1016): 16 µg/mL (≈ 10.7 µM) | MIC ([4]; strain CRE1017): 32 µg/mL (≈ 21.4 µM) | MIC ([5]; strain ATCC 700603): 8 µg/mL (≈ 5.36 µM) | MIC ([5]; strain CRE1007): 8 µg/mL (≈ 5.36 µM) | MIC ([5]; strain CRE1008): 8 µg/mL (≈ 5.36 µM) | MIC ([5]; strain CRE1011): 8 µg/mL (≈ 5.36 µM) | MIC ([5]; strain CRE1012): 8 µg/mL (≈ 5.36 µM) | MIC ([5]; strain M7): 64 µg/mL (≈ 42.9 µM) | MIC [6]: 8 µg/mL (≈ 5.36 µM) | MIC [7]: 8 µg/mL (≈ 5.36 µM) | MIC after resistance development in serial passage ([8]; after 5-7 days of passage): 32 µg/mL (≈ 21.4 µM) | MIC ([9]; strain ATCC 25830): 32 µg/mL (≈ 21.4 µM) | MIC ([9]; strain CRE1001): 32 µg/mL (≈ 21.4 µM) | MIC [10]: >64 µg/mL | MIC ([11]; strain ATCC 9027): 64 µg/mL (≈ 42.9 µM) | MIC ([11]; strain DM4150R): 64 µg/mL (≈ 42.9 µM) | MIC ([11]; strain DM23376): >64 µg/mL | MIC ([11]; strain DR4877/07): 64 µg/mL (≈ 42.9 µM) | MIC ([11]; strain DR5790/07): 64 µg/mL (≈ 42.9 µM) | Tmax [12]: 2 h | Cmax ([12]; SD): 60.7 µg/mL | half-life ([12]; SD): 2.4 h | Kd ([13]; KD, steady state response, SPR, BamA-β, concentration range 0.019 µM to 20 µM): ~800 nM | koff ([13]; read-out: kd (dissociation rate)): 0.0673 s⁻¹ | ΔTm at 20 µM [14]: 3.8 °C | MIC ([15]; strain ATCC 29737): >64 µg/mL | MIC ([15]; strain ATCC 43300): >64 µg/mL | MIC [16, 18]: 8 µg/mL (≈ 5.36 µM) | MIC ([16]; K12 MG1655 BamA G429V, G807V): 8 µg/mL (≈ 5.36 µM) | MIC ([16]; MG1655 bamA G429C, generated in the present study): 32 µg/mL (≈ 21.4 µM) | MIC ([16]; strain 1 (darobactin-resistant MG1655 strain previously reported)): 8 µg/mL (≈ 5.36 µM) | MIC ([16]; strain 2 (darobactin-resistant MG1655 strain previously reported)): 8 µg/mL (≈ 5.36 µM) | MIC [16, 19]: 2 µg/mL (≈ 1.34 µM) | MIC ([16]; strain CRE1006, broth microdilution, MHB, 18-20 h, 37 °C): 4 µg/mL (≈ 2.68 µM) | MIC ([16]; strain K12 MG1655 (WT)): 2 µg/mL (≈ 1.34 µM) | MIC ([16]; strain M2, broth microdilution, MHB, 18-20 h, 37 °C, repeated three times): 16 µg/mL (≈ 10.7 µM) | MIC ([16]; strain M6, broth microdilution, MHB, 18-20 h, 37 °C): 8 µg/mL (≈ 5.36 µM) | MIC ([16]; strain M10, broth microdilution, MHB, 18-20 h, 37 °C): 4 µg/mL (≈ 2.68 µM) | MIC ([16]; strain M11, broth microdilution, MHB, 18-20 h, 37 °C): 4 µg/mL (≈ 2.68 µM)

MIC ([2]; strain ATCC 19606): >64 µg/mL | MIC ([5]; strain ATCC 700603): 8 µg/mL | MIC ([9]; strain ATCC 25830): 64 µg/mL | MIC [10]: >64 µg/mL | MIC ([11]; strain ATCC 9027): 64 µg/mL | MIC ([15]; strain ATCC 29737): >64 µg/mL | MIC [16, 19]: 8 µg/mL
Compound: WINAFANWTKRI (also: bicyclic or more (positions not given here)) [Compound 3, xenorceptide A3]

Compound: WINAFGNWTKSF (also: bicyclic or more (positions not given here)) [Compound 16, xenorceptide A16]
MIC [17]: >64 µg/mL | MIC ([2]; strain ATCC 19606): >64 µg/mL | MIC ([4]; strain ATCC 13047): >64 µg/mL | MIC ([5]; strain ATCC 700603): >64 µg/mL | MIC ([15]; strain ATCC 29737): >64 µg/mL | MIC [16, 19]: >64 µg/mL

MIC [17]: >64 µg/mL | MIC ([2]; strain ATCC 19606): >64 µg/mL | MIC ([4]; strain ATCC 13047): 8 µg/mL | MIC ([5]; strain ATCC 700603): 8 µg/mL | MIC ([15]; strain ATCC 29737): >64 µg/mL | MIC [16, 19]: 4 µg/mL
Compound: WVNAFAKWTKRI (also: bicyclic or more (positions not given here)) [Compound 11, xenorceptide A11]

Compound: WVNAFANWPKRF (also: bicyclic or more (positions not given here)) [Compound 13, xenorceptide A13]
MIC [17]: >64 µg/mL | MIC ([2]; strain ATCC 19606): >64 µg/mL | MIC ([4]; strain ATCC 13047): >64 µg/mL | MIC ([5]; strain ATCC 700603): 32 µg/mL | MIC ([15]; strain ATCC 29737): >64 µg/mL | MIC [16, 19]: 8 µg/mL

Compound: WVNAFANWSKAL (also: bicyclic or more (positions not given here)) [Compound 15, xenorceptide A15]
MIC [17]: >64 µg/mL | MIC ([2]; strain ATCC 19606): >64 µg/mL | MIC ([4]; strain ATCC 13047): >64 µg/mL | MIC ([5]; strain ATCC 700603): >64 µg/mL | MIC ([15]; strain ATCC 29737): >64 µg/mL | MIC [16, 19]: 64 µg/mL

Compound: WVNAFANWSKSF (also: bicyclic or more (positions not given here)) [Compound 6, xenorceptide A6]
MIC ([2]; strain ATCC 19606): >64 µg/mL | MIC ([5]; strain ATCC 700603): >64 µg/mL | MIC ([11]; strain ATCC 9027): >64 µg/mL | MIC ([15]; strain ATCC 29737): >64 µg/mL | MIC [16, 19]: 64 µg/mL

MIC ([2]; strain ATCC 19606): >64 µg/mL | MIC ([5]; strain ATCC 700603): 4 µg/mL | MIC ([11]; strain ATCC 9027): 64 µg/mL | MIC ([15]; strain ATCC 29737): >64 µg/mL | MIC [16, 19]: 2 µg/mL
Compound: WVNAFANWTKRF (also: bicyclic or more (positions not given here)) [Compound 8, xenorceptide A8]

Compound: WVNAFARWDKKF (also: bicyclic or more (positions not given here)) [Compound 7, xenorceptide A7]
MIC ([2]; strain ATCC 19606): >64 µg/mL | MIC ([5]; strain ATCC 700603): >64 µg/mL | MIC ([11]; strain ATCC 9027): >64 µg/mL | MIC ([15]; strain ATCC 29737): >64 µg/mL | MIC [16, 19]: 64 µg/mL

Compound: WVNAFGNWSKSL (also: bicyclic or more (positions not given here)) [Compound 14, xenorceptide A14]
MIC [17]: >64 µg/mL | MIC ([2]; strain ATCC 19606): >64 µg/mL | MIC ([4]; strain ATCC 13047): 64 µg/mL | MIC ([5]; strain ATCC 700603): >64 µg/mL | MIC ([15]; strain ATCC 29737): >64 µg/mL | MIC [16, 19]: 64 µg/mL

Compound: WVNAFVNWPKSF (also: bicyclic or more (positions not given here)) [Compound 5, xenorceptide A5]
MIC ([2]; strain ATCC 19606): >64 µg/mL | MIC ([5]; strain ATCC 700603): 32 µg/mL | MIC ([11]; strain ATCC 9027): >64 µg/mL | MIC ([15]; strain ATCC 29737): >64 µg/mL | MIC [16, 19]: 16 µg/mL

Compound: WVNAYARWTKRF (also: bicyclic or more (positions not given here)) [Compound 12, xenorceptide A12]
MIC [17]: >64 µg/mL | MIC ([2]; strain ATCC 19606): >64 µg/mL | MIC ([4]; strain ATCC 13047): >64 µg/mL | MIC ([5]; strain ATCC 700603): 16 µg/mL | MIC ([15]; strain ATCC 29737): >64 µg/mL | MIC [16, 19]: 4 µg/mL

MIC ([2]; strain ATCC 19606): >64 µg/mL | MIC ([5]; strain ATCC 700603): 16 µg/mL | MIC ([9]; strain ATCC 25830): 64 µg/mL | MIC [10]: >64 µg/mL | MIC ([11]; strain ATCC 9027): >64 µg/mL | MIC ([15]; strain ATCC 29737): >64 µg/mL | MIC [16, 19]: 8 µg/mL
Compound: WVNAYARWTNRF (also: bicyclic or more (positions not given here)) [Compound 4, xenorceptide A4]

Compound: colistin [reference compound]
time to development of resistance in serial passage ([8]; sub-inhibitory concentrations, MHB): 3 days

Compound: dynobactin A [reference compound]
MIC [16, 18]: 16 µg/mL | MIC ([16]; K12 MG1655 BamA G429V, G807V): > 128 µg/mL | MIC [16, 19]: 8 µg/mL | MIC ([16]; strain K12 MG1655 (WT)): 16 µg/mL
